Reference: ChEMBL document CHEMBL1201862, “PubChem BioAssay data set” (2004)
The source made the active and inactive calls.

Assays:
[1] = target: T1, Runt-related transcription factor 1/Core-binding factor subunit beta (Homo sapiens, UniProt Q01196+Q13951); test: inhibitors of RUNX1 Runt–CBFb-SMMHC binding, biochemical, TR-FRET (AID 1438); assay type: protein assay
[2] = target: T2, Endoribonuclease toxin MazF (Escherichia coli K-12, UniProt P0AE70); test: MazF toxin RNase activators, dose response, biochemical, fluorescence, single-stranded RNA substrate, uHTS hits (AID 588481); assay type: functional
T2 sequence (P0AE70 whole entry): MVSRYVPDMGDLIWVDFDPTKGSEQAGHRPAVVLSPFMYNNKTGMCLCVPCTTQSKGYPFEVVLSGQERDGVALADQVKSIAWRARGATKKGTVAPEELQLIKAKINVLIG

[3] = target: T2, Endoribonuclease toxin MazF; test: fluorescent RNA oligo signal without MazF, dose response, counter-screen for MazEF activator project, biochemical, fluorescence, single-stranded RNase substrate (AID 588502); assay type: functional
[4] = target: T1, Runt-related transcription factor 1/Core-binding factor subunit beta; test: inhibitors of RUNX1 Runt–CBFb-SMMHC binding, primary screen, biochemical, FRET, Cerulean-Runt, Venus-CBFb-SMMHC, uHTS (AID 1434); assay type: protein assay;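 further: partner is the CBFb-SMMHC leukemia fusion protein rather than wild-type CBFb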
[5] = target: T3, Voltage-gated N-type calcium channel alpha-1B subunit/Amyloid beta A4 precursor protein-binding family A member 1 (Homo sapiens, UniProt Q00975+Q02410); assay type: protein assay
T3 sequence (Q00975 whole entry): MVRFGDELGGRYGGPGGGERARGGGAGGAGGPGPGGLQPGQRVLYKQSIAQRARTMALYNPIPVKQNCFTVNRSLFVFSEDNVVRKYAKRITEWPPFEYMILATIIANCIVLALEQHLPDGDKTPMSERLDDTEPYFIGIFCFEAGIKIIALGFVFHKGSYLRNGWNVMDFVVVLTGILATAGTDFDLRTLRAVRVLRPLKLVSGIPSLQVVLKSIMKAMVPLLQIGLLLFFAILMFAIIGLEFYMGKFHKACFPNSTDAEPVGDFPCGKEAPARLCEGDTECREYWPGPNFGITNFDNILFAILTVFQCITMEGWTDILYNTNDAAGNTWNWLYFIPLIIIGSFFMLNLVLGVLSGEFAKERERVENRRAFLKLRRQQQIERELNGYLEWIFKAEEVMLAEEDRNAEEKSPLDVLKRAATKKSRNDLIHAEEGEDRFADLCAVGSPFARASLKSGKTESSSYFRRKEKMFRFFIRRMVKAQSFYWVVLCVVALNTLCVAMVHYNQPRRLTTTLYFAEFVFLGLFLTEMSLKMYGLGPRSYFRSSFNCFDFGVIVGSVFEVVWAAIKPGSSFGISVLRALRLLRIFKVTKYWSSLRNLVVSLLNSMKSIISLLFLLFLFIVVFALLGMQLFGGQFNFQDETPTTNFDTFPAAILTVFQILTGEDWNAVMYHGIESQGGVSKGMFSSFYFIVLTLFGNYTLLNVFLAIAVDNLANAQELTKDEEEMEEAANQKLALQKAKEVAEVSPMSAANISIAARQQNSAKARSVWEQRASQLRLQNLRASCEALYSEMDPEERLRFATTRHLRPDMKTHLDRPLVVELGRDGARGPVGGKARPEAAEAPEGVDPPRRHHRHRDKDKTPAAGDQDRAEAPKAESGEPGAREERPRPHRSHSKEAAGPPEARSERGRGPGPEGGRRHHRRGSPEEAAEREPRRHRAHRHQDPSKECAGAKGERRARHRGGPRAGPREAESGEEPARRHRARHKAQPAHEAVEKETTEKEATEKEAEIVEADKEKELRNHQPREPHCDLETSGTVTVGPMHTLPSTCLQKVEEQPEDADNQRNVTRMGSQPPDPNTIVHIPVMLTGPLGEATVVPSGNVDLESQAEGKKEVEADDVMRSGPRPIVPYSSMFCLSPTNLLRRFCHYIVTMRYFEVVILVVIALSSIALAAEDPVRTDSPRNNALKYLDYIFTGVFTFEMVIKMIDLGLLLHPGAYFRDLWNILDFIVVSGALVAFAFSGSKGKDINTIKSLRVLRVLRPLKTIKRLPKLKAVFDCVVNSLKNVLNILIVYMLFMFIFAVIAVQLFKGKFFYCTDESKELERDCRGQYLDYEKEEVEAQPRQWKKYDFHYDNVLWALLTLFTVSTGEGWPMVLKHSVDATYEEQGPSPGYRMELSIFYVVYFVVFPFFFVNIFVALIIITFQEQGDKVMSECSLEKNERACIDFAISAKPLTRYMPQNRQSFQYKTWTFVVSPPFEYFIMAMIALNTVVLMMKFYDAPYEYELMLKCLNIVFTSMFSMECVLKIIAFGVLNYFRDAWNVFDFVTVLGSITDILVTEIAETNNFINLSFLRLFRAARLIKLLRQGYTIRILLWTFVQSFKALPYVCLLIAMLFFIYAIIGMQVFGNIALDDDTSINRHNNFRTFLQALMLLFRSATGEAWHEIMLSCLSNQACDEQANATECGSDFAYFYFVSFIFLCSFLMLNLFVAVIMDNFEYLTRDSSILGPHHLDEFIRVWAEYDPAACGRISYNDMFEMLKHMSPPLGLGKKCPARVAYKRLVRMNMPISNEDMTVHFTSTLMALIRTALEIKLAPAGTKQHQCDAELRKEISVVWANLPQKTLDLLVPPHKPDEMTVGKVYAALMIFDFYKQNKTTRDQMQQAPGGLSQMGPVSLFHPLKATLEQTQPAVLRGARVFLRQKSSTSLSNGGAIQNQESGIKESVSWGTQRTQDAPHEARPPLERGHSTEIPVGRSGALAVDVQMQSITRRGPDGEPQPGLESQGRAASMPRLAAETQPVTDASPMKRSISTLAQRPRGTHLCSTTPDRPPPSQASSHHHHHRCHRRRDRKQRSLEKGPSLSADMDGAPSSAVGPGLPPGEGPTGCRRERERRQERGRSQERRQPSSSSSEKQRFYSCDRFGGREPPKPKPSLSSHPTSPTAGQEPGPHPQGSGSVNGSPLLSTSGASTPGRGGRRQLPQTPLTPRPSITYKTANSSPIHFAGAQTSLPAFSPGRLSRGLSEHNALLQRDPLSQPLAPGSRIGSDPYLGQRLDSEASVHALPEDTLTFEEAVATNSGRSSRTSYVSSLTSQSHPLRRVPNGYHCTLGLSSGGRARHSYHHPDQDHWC
T3 sequence (Q02410 whole entry): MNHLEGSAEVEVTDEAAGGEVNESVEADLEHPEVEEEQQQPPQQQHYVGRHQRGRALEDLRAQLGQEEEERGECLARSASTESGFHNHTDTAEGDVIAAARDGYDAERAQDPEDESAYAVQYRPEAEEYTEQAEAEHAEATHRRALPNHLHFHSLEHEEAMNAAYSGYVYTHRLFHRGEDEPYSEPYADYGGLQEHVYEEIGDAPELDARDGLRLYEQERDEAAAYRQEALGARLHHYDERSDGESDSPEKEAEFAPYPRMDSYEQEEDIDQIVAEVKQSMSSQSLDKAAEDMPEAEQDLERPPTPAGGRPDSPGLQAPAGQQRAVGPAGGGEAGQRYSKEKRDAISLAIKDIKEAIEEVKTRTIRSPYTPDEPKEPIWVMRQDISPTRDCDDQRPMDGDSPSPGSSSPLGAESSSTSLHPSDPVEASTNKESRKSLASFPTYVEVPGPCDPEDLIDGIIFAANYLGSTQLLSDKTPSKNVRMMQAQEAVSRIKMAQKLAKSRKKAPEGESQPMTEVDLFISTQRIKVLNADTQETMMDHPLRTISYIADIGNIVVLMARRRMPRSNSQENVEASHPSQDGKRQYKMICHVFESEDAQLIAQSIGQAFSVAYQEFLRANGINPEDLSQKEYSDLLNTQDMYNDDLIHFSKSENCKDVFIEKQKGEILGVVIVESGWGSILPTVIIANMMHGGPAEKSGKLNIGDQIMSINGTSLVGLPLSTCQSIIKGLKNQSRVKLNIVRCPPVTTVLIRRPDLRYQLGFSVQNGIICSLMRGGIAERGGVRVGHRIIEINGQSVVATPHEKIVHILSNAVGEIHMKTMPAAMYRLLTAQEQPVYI

[6] = target: T3, Voltage-gated N-type calcium channel alpha-1B subunit/Amyloid beta A4 precursor protein-binding family A member 1; assay type: protein assay; remark: listed apart in the source
HeLa = test: HeLa cell cytotoxicity, dose response, cytotoxicity control for MITF activator project, CellTiter-Glo luminescence, cherry-pick samples (AID 540259); assay type: functional, cell-based; settings: Homo sapiens
[7] = target: T4, Corticotropin-releasing factor receptor 2/Corticotropin-releasing factor-binding protein (Homo sapiens, UniProt P24387+Q13324); test: Dose Response confirmation of uHTS hits for small molecule antagonists of the CRF-binding protein and CRF-R2 receptor complex.; assay type: functional; settings: read-out: IC50_Mean
T4 sequence (Q13324 whole entry): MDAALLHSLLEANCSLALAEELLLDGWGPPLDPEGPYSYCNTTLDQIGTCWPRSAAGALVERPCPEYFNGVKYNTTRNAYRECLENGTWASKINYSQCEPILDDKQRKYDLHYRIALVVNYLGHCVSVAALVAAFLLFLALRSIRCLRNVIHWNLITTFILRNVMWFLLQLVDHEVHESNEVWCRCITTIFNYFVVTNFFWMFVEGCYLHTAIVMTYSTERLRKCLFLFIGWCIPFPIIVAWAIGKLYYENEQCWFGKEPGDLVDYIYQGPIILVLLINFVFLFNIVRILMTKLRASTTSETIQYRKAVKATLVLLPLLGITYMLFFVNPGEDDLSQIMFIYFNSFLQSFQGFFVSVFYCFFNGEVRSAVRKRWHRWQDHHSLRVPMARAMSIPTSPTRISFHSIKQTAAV
T4 sequence (P24387 whole entry): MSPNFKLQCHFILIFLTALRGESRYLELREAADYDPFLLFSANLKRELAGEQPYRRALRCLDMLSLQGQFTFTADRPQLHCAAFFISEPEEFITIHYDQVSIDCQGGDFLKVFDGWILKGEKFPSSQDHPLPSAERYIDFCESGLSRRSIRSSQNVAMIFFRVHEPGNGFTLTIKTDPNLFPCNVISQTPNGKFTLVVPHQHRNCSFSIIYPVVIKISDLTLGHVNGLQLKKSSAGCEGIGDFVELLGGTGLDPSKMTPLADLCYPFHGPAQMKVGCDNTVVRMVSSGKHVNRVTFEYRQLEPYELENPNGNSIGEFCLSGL

[8] = target: T4, Corticotropin-releasing factor receptor 2/Corticotropin-releasing factor-binding protein; test: activators of CRF receptor 2 with binding protein – uHTS hits, confirmation (AID 602473); assay type: functional; settings: read-out: EC50_Mean
[9] = target: Potassium voltage-gated channel subfamily KQT member 2 (Rattus norvegicus, UniProt O88943); test: retigabine-insensitive KCNQ2 potentiators, concentration-response, dose response, cell-based, retigabine-insensitive compounds (AID 2654); assay type: functional
[10] = target: T5, Rac GTPase-activating protein 1 (Homo sapiens, UniProt Q9H0H5); test: MgcRacGAP GTPase-activating activity inhibitors, confirmation, biochemical, ADP Hunter fluorescence, primary and confirmatory (AID 624330); assay type: functional
T5 sequence (Q9H0H5 whole entry): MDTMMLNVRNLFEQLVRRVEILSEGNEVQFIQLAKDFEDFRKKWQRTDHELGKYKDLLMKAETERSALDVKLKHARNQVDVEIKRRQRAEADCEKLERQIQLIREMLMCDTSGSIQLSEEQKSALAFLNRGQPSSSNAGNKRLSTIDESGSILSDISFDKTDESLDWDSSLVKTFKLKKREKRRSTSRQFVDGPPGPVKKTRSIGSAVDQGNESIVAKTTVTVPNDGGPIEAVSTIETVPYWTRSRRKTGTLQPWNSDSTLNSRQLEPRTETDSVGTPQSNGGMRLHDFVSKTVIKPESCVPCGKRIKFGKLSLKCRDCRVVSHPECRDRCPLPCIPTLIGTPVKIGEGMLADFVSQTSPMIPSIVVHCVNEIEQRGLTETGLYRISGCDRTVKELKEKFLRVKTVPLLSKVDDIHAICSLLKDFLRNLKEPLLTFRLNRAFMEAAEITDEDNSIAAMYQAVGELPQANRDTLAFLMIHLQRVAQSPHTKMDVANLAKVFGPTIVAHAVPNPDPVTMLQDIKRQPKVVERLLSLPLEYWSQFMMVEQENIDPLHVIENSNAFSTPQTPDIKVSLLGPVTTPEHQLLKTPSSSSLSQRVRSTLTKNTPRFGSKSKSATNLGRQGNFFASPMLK

[11] = target: T6, Polyadenylate-binding protein 1 (Homo sapiens, UniProt P11940); test: PABP1 MLLE–PAM2 binding inhibitor potency, dose response, biochemical, fluorescence polarization, FITC-PAM2 peptide (AID 602259); assay type: functional; settings: read-out: IC50_Mean
[12] = target: T6, Polyadenylate-binding protein 1; test: PABP1 MLLE–PAM2 interaction inhibitors, dose response, miRNA deadenylation inhibitor project, biochemical, fluorescence polarization, Cy5-PAM2 peptide, secondary (AID 602260); assay type: functional; settings: read-out: IC50_Mean
[13] = C. albicans growth with fluconazole, confirmation, fluorescence, retest (AID 2467); assay type: functional, cell-based
[14] = NIH-3T3 fibroblast cytotoxicity, dose response, cytotoxicity control, cell-based, fluorescence, Alamar Blue, secondary assay (AID 2327); assay type: functional;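 further: NIH-3T3 mouse fibroblasts cultured with fluconazole at 8 µg/mL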
[15] = target: T7, Serine/threonine-protein phosphatase (Candida dubliniensis (strain CD36 / CBS 7987 / NCPF 3949 / NRRLY-17841) (Yeast), UniProt B9W6M3); test: calcineurin pathway inhibitors in yeast reporter, dose response, S. cerevisiae, CDRE-lacZ, luminescence, secondary (AID 2388); assay type: functional, cell-based;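 further: yeast reporter cells carrying a calcineurin-responsive lacZ construct stimulated with calcium chloride; luminescent beta-galactosidase reporter signal in whole cells rather than isolated phosphatase activity; potency for inhibition where a drop in reporter signal means calcineurin blockade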
T7 sequence (B9W6M3 whole entry): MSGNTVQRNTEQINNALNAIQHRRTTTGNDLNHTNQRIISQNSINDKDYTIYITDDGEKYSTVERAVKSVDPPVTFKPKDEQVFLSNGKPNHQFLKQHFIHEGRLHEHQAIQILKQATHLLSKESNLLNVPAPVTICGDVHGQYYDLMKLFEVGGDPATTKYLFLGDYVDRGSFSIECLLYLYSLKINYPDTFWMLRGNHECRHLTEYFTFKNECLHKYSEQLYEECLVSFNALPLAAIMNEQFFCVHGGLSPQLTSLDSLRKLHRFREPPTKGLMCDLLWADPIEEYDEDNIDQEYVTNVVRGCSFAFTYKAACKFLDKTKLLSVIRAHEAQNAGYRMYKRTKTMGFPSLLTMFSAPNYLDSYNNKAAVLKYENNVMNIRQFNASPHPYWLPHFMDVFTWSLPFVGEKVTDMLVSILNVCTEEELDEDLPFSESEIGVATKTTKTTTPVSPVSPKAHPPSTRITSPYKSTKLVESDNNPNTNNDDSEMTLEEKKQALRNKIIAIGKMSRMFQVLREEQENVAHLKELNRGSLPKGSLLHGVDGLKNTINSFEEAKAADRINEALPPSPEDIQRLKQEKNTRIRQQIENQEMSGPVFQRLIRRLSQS

[16] = target: Voltage-dependent T-type calcium channel subunit alpha-1H (Homo sapiens, UniProt O95180); assay type: functional;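 further: channel activity triggered by adding a high calcium stimulation buffer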
[17] = target: ATP-dependent molecular chaperone HSP82 (Candida albicans (strain WO-1) (Yeast), UniProt C4YTQ8); test: loss of DOC-induced GRE-beta-galactosidase reporter signal, dose response, Hsp90 inhibitor project, S. cerevisiae, luminescence (AID 2400); assay type: functional, cell-based;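 further: beta-galactosidase luminescence from glucocorticoid response element reporter as proxy for Hsp90 function; inhibitor potency where signal loss means Hsp90 inhibition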
Sequence of ATP-dependent molecular chaperone HSP82 (C4YTQ8 whole entry): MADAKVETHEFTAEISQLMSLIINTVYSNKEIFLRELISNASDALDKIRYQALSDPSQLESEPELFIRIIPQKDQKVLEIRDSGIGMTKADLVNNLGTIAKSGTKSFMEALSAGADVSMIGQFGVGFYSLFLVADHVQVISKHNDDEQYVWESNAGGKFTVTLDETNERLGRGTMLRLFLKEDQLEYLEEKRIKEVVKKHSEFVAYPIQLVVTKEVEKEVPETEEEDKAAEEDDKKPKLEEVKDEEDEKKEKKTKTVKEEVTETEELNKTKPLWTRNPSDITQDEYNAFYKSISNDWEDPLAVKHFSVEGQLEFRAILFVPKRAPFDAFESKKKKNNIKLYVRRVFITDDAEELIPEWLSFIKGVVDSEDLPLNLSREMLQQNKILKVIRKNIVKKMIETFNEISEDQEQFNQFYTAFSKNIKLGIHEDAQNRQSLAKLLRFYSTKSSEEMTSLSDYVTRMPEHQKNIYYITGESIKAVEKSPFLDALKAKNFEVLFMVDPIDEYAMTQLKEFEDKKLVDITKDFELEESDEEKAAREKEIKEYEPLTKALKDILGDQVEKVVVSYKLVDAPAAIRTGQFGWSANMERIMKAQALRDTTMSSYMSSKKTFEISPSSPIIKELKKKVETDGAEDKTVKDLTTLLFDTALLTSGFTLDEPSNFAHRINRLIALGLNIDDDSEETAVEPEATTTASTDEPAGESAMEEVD

Streptococcus = test: Group A Streptococcus viability loss, dose response, counter-screen for streptokinase expression inhibitor project, luminescence, BacTiterGlo (AID 1915); assay type: functional, organism-based;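 further: potency for reduction of bacterial viability or growth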
[18] = test system: Streptococcus sp. 'group A'; test: growth inhibition of control SK(-) GAS strain, dose response, counter-screen for streptokinase expression inhibitor project, luminescence, kanamycin, BacTiterGlo, confirmation (AID 1900); assay type: functional, organism-based
[19] = inhibitors of intracellular T. cruzi replication, confirmation, NIH3T3 host cells, beta-gal luminescence (AID 2044); assay type: functional, cell-based;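 further: intracellular parasites grown in NIH/3T3 mouse fibroblasts as host cells; luminescent beta-galactosidase reporter signal from transgenic T. cruzi replicating inside host cells; inhibitors lower the luminescence signal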
cells [20] = assay type: functional, cell-based
[21] = cytotoxicity toward NIH3T3 fibroblasts, dose response, counter-screen, cell-based, ATP luminescence, mouse fibroblasts (AID 2010); assay type: functional;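 further: cells exposed to compound for about 90 hours before reading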
[22] = cytotoxicity in HEK-293T cells, dose response, cytotoxicity control for TCR NF-kB inhibitor project, luminescence, T-cell screen hits (AID 489026); assay type: functional, cell-based;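 further: cells exposed to compound about 14 hours before the viability readout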
cells [23] = assay type: functional, cell-based; remark: listed apart in the source
[24] = target: Heat shock protein HSP 90-alpha (Homo sapiens, UniProt P07900); assay type: functional, organism-based
Large T antigen = Large T antigen (Simian virus 40, UniProt P03070); assay type: functional, Betapolyomavirus macacae;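 further: Confirmatory-stage PubChem screen for compounds that inhibit SV40 T antigen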
[25] = target: Dual specificity tyrosine-phosphorylation-regulated kinase 1A (Rattus norvegicus, UniProt Q63470); assay type: biochemical, Homo sapiens

T1 sequence (Q01196 whole entry): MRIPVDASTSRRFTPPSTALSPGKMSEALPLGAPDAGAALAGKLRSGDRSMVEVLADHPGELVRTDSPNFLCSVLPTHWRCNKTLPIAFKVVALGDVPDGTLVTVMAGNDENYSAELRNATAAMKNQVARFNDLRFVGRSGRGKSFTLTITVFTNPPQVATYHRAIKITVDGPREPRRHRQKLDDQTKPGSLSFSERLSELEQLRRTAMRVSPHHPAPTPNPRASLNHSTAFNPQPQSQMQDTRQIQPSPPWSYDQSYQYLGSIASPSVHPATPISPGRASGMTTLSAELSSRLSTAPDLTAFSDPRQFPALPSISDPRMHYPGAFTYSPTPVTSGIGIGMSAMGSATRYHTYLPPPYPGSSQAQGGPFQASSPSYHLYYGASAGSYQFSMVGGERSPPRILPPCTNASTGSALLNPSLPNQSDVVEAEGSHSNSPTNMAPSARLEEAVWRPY
T1 sequence (Q13951 whole entry): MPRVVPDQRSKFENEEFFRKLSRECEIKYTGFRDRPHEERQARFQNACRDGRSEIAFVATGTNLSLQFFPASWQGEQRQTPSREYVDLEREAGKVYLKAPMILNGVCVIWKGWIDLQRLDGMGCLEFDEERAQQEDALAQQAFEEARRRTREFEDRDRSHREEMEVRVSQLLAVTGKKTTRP

For `COc1ccc2nc(N3CCCC3)c(C#N)cc2c1`, the IC50 [1] was > 100 µM (inactive), the EC50 [2] was > 99 µM (inactive) and the EC50 [3] was > 99 µM (inactive). For the same molecule, the IC50 [4] was 2.04 µM (active).

For `O=C(CCN1C(=O)/C(=C/c2ccccc2Cl)SC1=S)NC1C=CS(=O)(=O)C1` (stereo unspecified), the IC50 [5] was 5.41 µM (active) and the IC50 [6] was > 50 µM (inactive).

With `Cc1ccc(NC(=O)C2C3/C=C\CCCCC32)cc1` (stereo unspecified) the AC50 (HeLa) was 197 µM (active).

For `CCCCc1ccc(NC(=S)Nc2cccnc2)cc1`, the IC50 [7] was > 47.1 µM (inactive), the EC50 [8] was > 53 µM (inactive) and the EC50 [9] was 268 µM (active).

For `N#Cc1ccc(C(=O)NC2CCCCCCC2)cc1`, the AC50 (HeLa) was 55 µM (active).

For `COc1cccc(Nc2ccc(N3CCCCC3)cc2)c1OC`, the IC50 [10] was 9.65 µM (active), the AC50 (HeLa) was 252 µM (active) and the IC50 [11] was 21.4 µM (inactive). The IC50 [12] was > 66 µM (inactive).

In the case of `COc1ccc(-c2nnc(NC(=O)c3cc(Cl)ccc3Cl)o2)cc1`, the EC50 [13] was 0.815 µM (active), the EC50 [14] was > 150 µM (inactive) and the EC50 [15] was > 180 µM (inactive). The EC50 [16] was 10.8 µM (active), the EC50 [17] was 18 µM (active) and the EC50 (Streptococcus) was 7.89 µM (active). The EC50 [18] was 2.64 µM (active).

With `O=C(N/N=C/c1c(O)ccc2ccccc12)c1cccc(C(F)(F)F)c1` the EC50 [19] was 0.686 µM (active), the EC50 [13] was 0.452 µM (active) and the EC50 (cells [20]) was > 350 µM (not active). The EC50 [14] was 26.9 µM (active), the EC50 [15] was > 180 µM (inactive) and the EC50 [21] was 6.11 µM (active). For the same molecule, the IC50 [22] was > 80 µM (inactive), the EC50 [17] was 9.34 µM (active) and the EC50 (cells [23]) was 8.23 µM (active). The AC50 [24] was 2.24 µM (active).

With `N#Cc1c(-c2ccncc2)c2c([nH]c1=O)-c1ccccc1OC2` the IC50 [1] was > 100 µM (inactive) and the IC50 [4] was 1.04 µM (active).

In the case of `O=C1NC(=O)/C(=C/c2ccc(O)cc2)S1`, the IC50 (Large T antigen) was 10.1 µM (active) and the AC50 [25] was 0.414 µM (active).
